Experimental data from US10209236B2, “Cell analyzer system, cell analyzer program, and cell analyzing method” (Sony Corporation, priority 2012, dated 2019).

Assays:
Format in all cases: cell-based
[1] = test system: neuron cells (iPS Academia Japan) that were differentiation of iPS cells; assay: Motion vibration of neuron cells, FFT power spectra; conditions: for spontaneous membrane potential vibration of the neural cells: confirmed by the vibration characteristics of the motion vibration
Method: Effects of GABA and L-Glu administered on the neuron cells were evaluated. The GABA or the L-Glu was administered to incubation liquid of the neuron cells (iPS Academia Japan) that were differentiation of iPS cells. Each neuron cell was image-captured at 2 flame/sec for 1 minute to provide each cell image.
In each cell image, the motion vibration was extracted using the image range including one neuron cell as the extraction range. FIG. 23(a) is a graph of the motion vibration extracted from the cell image of the neural cells to which the GABA is administrated. FIG. 23(b) is a graph of the motion vibration extracted from the cell image of the neural cells to which the L-Glu is administrated.
Then, the FFT analysis was applied to the motion vibration to calculate power spectra. FIG. 24(a) is a graph of power spectrum calculated from the motion vibration (FIG. 23(a)) of the neuron cells to which the GABA is administered. FIG. 24(b) is a graph of power spectrum calculated from the motion vibration (FIG. 23(b)) of the neuron cells to which the L-Glu is administered.

[2] = test system: neuron cells (iPS Academia Japan) that were differentiation of iPS cells; assay: Fluorescence intensity vibration (Ca2+ imaging with Fluo8) of neuron cells, FFT power spectra; conditions: for spontaneous membrane potential vibration of the neural cells: confirmed by the vibration characteristics of the fluorescence intensity vibration
Method: Effects of GABA and L-Glu on the neuron cells and the neuron cell network were evaluated using the fluorescence intensity vibration. The GABA is a physiological active substance that gives inhibitory stimulation to the neuron cells. The L-Glu gives exciting stimulation.
Fluo8 (fluorescent labeling) used in Ca^2+ imaging was entrained in the neuron cells (iPS Academia Japan) that were differentiation of iPS cells. The GABA or the L-Glu was administered to incubation liquid. Fluorescence of the Fluo8 generated from each neuron cell was image-captured at 2 flame/sec for 1 minute to provide each cell image.
The fluorescence intensity vibration (vibration information) was extracted from each cell image, taking the image range including one neuron cell as the extraction range. FIG. 9(a) is a graph of fluorescence intensity vibration extracted from the cell image of the neuron cells to which the GABA is administered. FIG. 9(b) is a graph of fluorescence intensity vibration extracted from the cell image of the neuron cells to which the L-Glu is administered.
Then, the FFT analysis was applied to fluorescence intensity vibration to calculate power spectra (vibration characteristics). FIG. 10(a) is a graph of power spectrum calculated from the fluorescence intensity vibration ([…]) of the neuron cells to which the GABA is administered. FIG. 10(b) is a graph of power spectrum calculated from the fluorescence intensity vibration ([…]) of the neuron cells to which the L-Glu is administered.

[3] = test system: neural cells derived from iPS cells where a sufficient neural cell network was formed; assay: Evaluation of cytotoxicity by motion vibration; conditions: whole image as extraction range; 5 μm of memantine with 500 nM or 5000 nM of Aβ peptide; incubated for five days; FIG. 28
Method: Effects of a cytotoxic substance administered on the neuron cells were evaluated using the motion vibration of the cells. As a cytotoxic model, the cytotoxicity of Aβ peptide considered as a cause of the Alzheimer disease and a neuroprotective action of an anti-alzheimer's disease drug, i.e., memantine were evaluated. As the cytotoxicity of Aβ peptide, there are a synapse failure by acting on synapses and a cell failure entrained in the cells. The cell group of the neural cells derived from iPS cells where a sufficient neural cell network was formed was prepared. A predetermined amount of Aβ peptide or Aβ peptide and memantine was administered to each cell group to incubate for five days. After five days, the cell image of each cell group was captured to extract the motion vibration from the whole image and each cell as the extraction range and the vibration characteristics were calculated. FIGS. 27(a) to (f) are graphs of the vibration characteristics of the motion vibration extracted from the extraction range including the whole image. […] FIG. 28 is a graph of average values of the vibration power extracted from the motion vibration in each cell group shown in FIGS. 27(a) to (e) in each pixel included in the extraction range. […] On the other hand, when memantine was administered, the vibration power is not decreased. […]

[4] = extraction range including one neuron cell, compared with neuron cells to which the L-Glu is administered, FIGS. 24(a) and 24(b)
[5] = extraction range including one neuron cell, compared with neuron cells to which the L-Glu is administered, FIGS. 10(a) and 10(b)

Compound	spontaneous membrane potential vibration of the neural cells [1]	amplitude of the motion vibration [1, 4]	frequency of the motion vibration [1, 4]	spontaneous membrane potential vibration of the neural cells [2]	amplitude of the fluorescence intensity vibration [2, 5]	frequency of the fluorescence intensity vibration [2, 5]	vibration power of the cell group (motion vibration, average values in each pixel) [3]
NCCCC(=O)O [GABA]	changed	greater	lower	changed	greater	lower	–
CC12CC3CC(C)(C1)CC(N)(C3)C2 [memantine]	–	–	–	–	–	–	not decreased
N[C@@H](CCC(=O)O)C(=O)O [L-Glu]	changed	–	–	changed	–	–	–
